Laboratory results taken from patent US9770026B2, “Substituted pyrimidine compound and uses thereof” (Shenyang Sinochem Agrochemicals R&D Co., Ltd., priority 2012, dated 2017).

What was measured:
[1] = test system: cucumber gray mold; assay: fungicidal activity in vitro (inhibition rate) against cucumber gray mold; format: cell-based; conditions: 25 ppm, in vitro; read-out: inhibition rate against cucumber gray mold
[2] = test system: Green peach aphids (Myzus Persicae Sulzer); assay: bioactivity test against green peach aphid, airbrush foliar spray; format: in vivo; conditions: Myzus persicae, foliar, 48 h
Summary of the method: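 Aphids (15-30 per cabbage leaf disc) on moist filter paper were airbrush-sprayed at 10 psi, 0.5 mL, with compound from acetone:methanol (1:1) diluted in water with 0.1% tween 80. Held at 25±1 C, 60±5% RH; survivors counted after 48 hrs to give death rates.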

[3] = test system: armyworm; assay: bioactivity test against armyworm, airbrush spray; format: in vivo; conditions: 72 h
[4] = test system: corn rust; assay: protectant activity in vivo against corn rust; conditions: Zea mays, 168 h, read-out: protectant activity against corn rust in vivo, 100 ppm
[5] = test system: cucumber downy mildew; assay: protectant activity in vivo against cucumber downy mildew; conditions: Cucumis sativus, 168 h
[6] = test system: Diamond back moth; assay: insecticidal activity against diamond back moth, airbrush spray; format: in vivo; conditions: 72 h
Summary of the method: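 Airbrush leaf-disc spray test: both faces of 2 cm cabbage discs received 0.5 ml of test solution at 0.7 kg/cm^2. Solutions were made in acetone:methanol (1:1) and brought to concentration with 0.1% Tween 80 in water. Ten second-instar larvae per disc, triplicates, were held at 25° C and 60˜70% R.H., with mortality recorded at 72 hrs.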

[7] = test system: wheat powdery mildew; assay: protectant activity in vivo against wheat powdery mildew; conditions: Triticum aestivum, 168 h, read-out: protectant activity against wheat powdery mildew in vivo, 400 ppm
[8] = test system: rice blast; assay: microbe, parasite or virus in culture; format: cell-based; conditions: Pyricularia oryzae, read-out: inhibition rate against rice blast, 25 ppm, in vitro
[9] = test system: carmine spider mite; assay: bioactivity test against carmine spider mite, airbrush spray; format: in vivo; conditions: Tetranychus cinnabarinus, 72 h, mortality after 72 hrs
Summary of the method: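 Broadbean seedlings infested with adult mites were sprayed with compound (acetone/methanol stock diluted in 0.1% Tween 80 water) by airbrush at 0.7 kg/cm^2, 0.5 ml. Three replicates were run. Mortality was scored after 72 hrs.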

CCc1ncnc(NCCc2ccc(Oc3ccc(Cl)nn3)cc2)c1Cl [Compound I-3309]
inhibition at 25 ppm [1]: 80 to 99%
pest or weed control at 1.25 µg/mL ([2]; 1.25 mg/L, contrastive test, read-out: Insecticidal activity against peach aphid (%)): 48%
pest or weed control at 2.5 µg/mL ([2]; 2.5 mg/L, contrastive test, read-out: Insecticidal activity against peach aphid (%)): 96%
pest or weed control at 5 µg/mL ([2]; 5 mg/L, contrastive test, read-out: Insecticidal activity against peach aphid (%)): 100%
pest or weed control at 10 µg/mL ([2]; 10 mg/L, contrastive test, read-out: Insecticidal activity against peach aphid (%)): 100%
pest or weed control at 100 µg/mL ([2]; 100 mg/L, contrastive test, read-out: Insecticidal activity against peach aphid (%)): 100%
pest or weed control at 600 µg/mL ([2]; 600 mg/L, contrastive test, read-out: Insecticidal activity against peach aphid (%)): 100%
pest or weed control at 10 ppm ([2]; 10 ppm, death rate after 48 hrs): 100%
pest or weed control at 100 ppm ([2]; 100 ppm, death rate after 48 hrs): 100%
pest or weed control at 600 ppm ([2]; 600 ppm, death rate after 48 hrs): 100%
pest or weed control at 10 µg/mL ([3]; 10 mg/L, read-out: Insecticidal activity against armyworm (%)): 60%
pest or weed control at 100 µg/mL ([3]; 100 mg/L, read-out: Insecticidal activity against armyworm (%)): 100%
pest or weed control at 600 µg/mL ([3]; 600 mg/L, read-out: Insecticidal activity against armyworm (%)): 100%
pest or weed control at 100 ppm ([3]; 100 ppm, mortality after 72 h): 100%
pest or weed control at 600 ppm ([3]; 600 ppm, mortality after 72 h): 100%
pest or weed control at 100 ppm [4]: 80 to 99%
pest or weed control at 3.125 µg/mL ([5]; read-out: control effect against cucumber downy mildew (%), 3.125 mg/L, protectant activity): 50%
pest or weed control at 6.25 µg/mL ([5]; read-out: control effect against cucumber downy mildew (%), 6.25 mg/L, protectant activity): 60%
pest or weed control at 12.5 µg/mL ([5]; read-out: control effect against cucumber downy mildew (%), 12.5 mg/L, protectant activity): 70%
pest or weed control at 25 µg/mL ([5]; read-out: control effect against cucumber downy mildew (%), 25 mg/L, protectant activity): 90%
pest or weed control at 50 µg/mL ([5]; read-out: control effect against cucumber downy mildew (%), 50 mg/L, protectant activity): 90%
pest or weed control at 100 µg/mL ([5]; read-out: control effect against cucumber downy mildew (%), 100 mg/L, protectant activity): 90%
pest or weed control at 400 µg/mL ([5]; read-out: control effect against cucumber downy mildew (%), 400 mg/L, protectant activity): 100%
pest or weed control at 25 ppm ([5]; read-out: protectant activity against cucumber downy mildew in vivo, 25 ppm): 80 to 99%
pest or weed control at 50 ppm ([5]; read-out: protectant activity against cucumber downy mildew in vivo, 50 ppm): 80 to 99%
pest or weed control at 100 ppm ([5]; read-out: protectant activity against cucumber downy mildew in vivo, 100 ppm): 80 to 99%
pest or weed control at 400 ppm ([5]; read-out: protectant activity against cucumber downy mildew in vivo, 400 ppm): 100%
pest or weed control at 10 µg/mL ([6]; 10 mg/L): 60%
pest or weed control at 100 µg/mL ([6]; 100 mg/L): 100%
pest or weed control at 600 µg/mL ([6]; 600 mg/L): 100%
pest or weed control at 100 ppm ([6]; 100 ppm, mortality after 72 hrs, read-out: control (test results against diamond back moth)): 100%
pest or weed control at 600 ppm ([6]; 600 ppm, mortality after 72 hrs, read-out: control (test results against diamond back moth)): 100%
pest or weed control at 400 ppm [7]: 100%
inhibition at 25 ppm [8]: 80 to 99%
pest or weed control at 100 ppm ([9]; 100 ppm): 80 to 99%
pest or weed control at 600 ppm ([9]; 600 ppm): 80 to 99%
